The test system of series [1] is hemorrhagic stroke induced by caudate nucleus collagenase VII injection in rats. The series can be described thus: Acute phase of hemorrhagic stroke induced by caudate nucleus collagenase VII injection, short-term neurological deficit score. The class given is in vivo. The following applies: for mNSS score / Garcia score: 24 h after hemorrhagic stroke modeling; for mNSS score: scale 0-18, higher worse; for Garcia score: scale 3-18, lower worse. Here is the method: after 2 h of hemorrhagic stroke, Zea Longa Score was used to determine whether the modeling was successful, and rats with successful modeling were taken and randomly grouped to be administered.
The rats were randomly divided into a sham operation group (Sham group, given a blank emulsion with a volume equal to that of the high-dose CTMB group), a model group (Vehicle group, given a blank emulsion with a volume equal to that of the high-dose CTMB group), a low-dose CTMB group (CTMB-L group, 10 mg/kg), a high-dose CTMB group (CTMB-H group, 20 mg/kg), and an edaravone dexborneol injection concentrated solution group (EDB group, commercially available, 3 mg/kg). Each group included 10-13 rats, which were administered by intraperitoneal injection. It should be noted that in the experiment, the mode of administration for rats was intraperitoneal injection, and a ratio of the effective dose of CTMB, the active ingredient in the emulsion injection, to the unit mass of the human body was within a range of 0.2 mg-4.0 mg/kg, which referred to the ratio of the effective dose of CTMB, the active ingredient in the emulsion injection, to the unit mass of the human body during intravenous infusion, which was extrapolated from effective dose of the rats. Considering the different bioavailability, peak concentration, and peak time of the drug due to different species and different modes of administration, the ration of the effective dose of the active ingredient CTMB in the emulsion injection to unit mass of human body was finally determined to be 0.2 mg-4.0 mg/kg through conversion.
The rats were fasted and dehydrated for 8 h before the procedure, and anesthesia was induced using 4% isoflurane, and 2% isoflurane was given to maintain anesthesia, and the rats were maintained at a temperature of about 37° C. The rats were fixed at the prone position on the stereotaxic apparatus, the head was prepared for skinning, and a longitudinal incision was made in the median sagittal shape of the head to incise the skin and subcutaneous tissues, exposing the anterior chimney and coronal suture. The stereotaxic apparatus was used to locate the right caudate nucleus of the rat with the fontanel as the origin and the right paracentral opening of the midline of 3.0 mm, marked and then holes were punched with the cranial bone drill, the dura was exposed, and the hemorrhage was stopped adequately. The micro-syringe was pre-mounted on the stereotaxic apparatus, and the needle was vertically injected 5.5 mm along the cranial borehole (i.e., the caudate nucleus site). Collagenase VII (1 μL) at a concentration of 0.5 U/μL was injected slowly and uniformly into the brain for 5 min, the needle was stopped for 8 min, and the syringe was slowly pushed out. The cranial defect was closed using sterile bone wax and the scalp incision was sutured. After disinfecting the treatment with iodophor, the rats were returned to the cage. The sham operation group (Sham group) remained unchanged except for the insertion of a needle for saline injection. After awaking from anesthesia, the rats were fed normally. […]
The neural function of the rats was comprehensively evaluated after 24 h of modeling using the modified mNSS score and Garcia score, and mNSS scoring criteria was shown in Table 3 and Garcia scoring criteria was shown in Table 4. […]

A further series relates to IL-6. The series can be described thus: IL-6 in cerebral cortex of TBI rats. The class given is in vivo, SD rats. Conditions: 30 mg/kg ip 2 h after TBI; 24 h after administration; FIG. 3. On the procedure: The experimental grouping and drug administration plan were as follows. • Sham operation group (Group P): saline was given with the same volume as in the CTMB group; • Model group (T group): a blank emulsion was given with the same volume as in the CTMB group; • Medium dose group (Group M): a dose of 30 mg/kg of CTMB emulsion injection was given.
The experimental grouping and drug administration plan were the same as the test 3. After 2 h of the TBI modeling, different groups of rats were administered intraperitoneally. After 24 h of the administration, the rats were deeply anesthetized, the head was severed and the brain was removed, about 60-120 mg of hemisphere cortex was taken out from the hemisphere on the blood side, 10 times the volume of ice-cold centrifugal buffer used for biochemical assays was added, homogenization was carried out in an ice bath for 10 min, and centrifugation was carried out at 4° C. and 14000 rpm/min for 30 min. The supernatant was extracted, and inflammatory factors IL-1, IL-6, and TNF-α were tested according to the instructions of IL-1, IL-6, and TNF-α assay kits, respectively.

Series [2] relates to Parkinson's disease (PD) mice, 6-OHDA method. The series can be described thus: 6-OHDA Parkinson's disease mice, hanging experiment. The class given is in vivo, C57 mice. Conditions: Group D, CTMB 20 mg/kg ip, cut-off 60 s. Here is the method:
The mice were randomly divided into a sham operation group (group S, given a blank emulsion with a volume equal to that of the administered group), a model group (group M, given a blank emulsion with a volume equal to that of the administered group), a CTMB group (20 mg/kg, group D), and a levodopa group (levodopa: benserazide hydrochloride=4:1, 12 mg/kg, group L), each group included 10-12 mice, and all of them were administered intraperitoneally.
Preoperatively, mice were fasted for 12 h, and mice were anesthetized with 4% isoflurane induction and maintained with 1.5% isoflurane. The mice were subsequently immobilized on a brain stereotaxic apparatus. The bregma and lambda points were exposed by gently wiping the cranial surface with a cotton swab after cutting the scalp. The stereotaxic apparatus was adjusted to align the heights of the bregma and lambda points, thereby leveling the skull. The bregma point was designated as the origin, the coordinates where the injection site was located were located, and the drill was used to drill a small hole in the skull above the injection site.
6-OHDA (12.5 μg/μL) was injected into the striatum region (AP+0.5 mm; ML+2.00 mm; DV-3.00 mm and-2.00 mm) of the mice, and 1 μL 6-OHDA was injected into each of the two points at a rate of 0.5 μL/min. The needle was left in place for 3 min after the injection was completed, and then the injection needle was lifted, and the scalp of the mice was sutured and disinfected. The sham operation group was injected with an equal volume of saline containing 0.02% ascorbic acid, and other operations were performed as above. After the procedure, the mice were placed in the cage at an appropriate temperature. After awakening from anesthesia, the mice were kept normally.
The hanging experiment: normal mice have climbing activity, which requires proper grip strength and motor coordination, so the hanging experiment may be used to examine motor dysfunction in mice. A metal rod with a diameter of 1.5 mm was placed horizontally on top of the box, and a distance from the metal rod to the bottom of the box was 30 cm. […] Measurement was performed twice, with an interval of 1 min or more between each test, and the results were averaged over the two times.
The motor function of the mice was comprehensively assessed using the rod-climbing experiment and the hanging experiment at 1, 2, 3, and 4 weeks after drug administration.

In the case of `COc1cc(OC)c(OC)cc1C=C1CCC1` [CTMB, 1-(cyclobutylidenemethyl)-2,4,5-trimethoxybenzene], in series [1] (10 and 20 mg/kg ip, hemorrhagic stroke rats), the “toxic side effects associated with administration” value is recorded as “No toxic side effects”. Besides, in series [1] (CTMB-H 20 mg/kg ip), the mNSS score is recorded as 5.97 ± 1.68^####, * and the Garcia score is 10.45 ± 2.49^####, *. In addition, in series [1] (CTMB-L 10 mg/kg ip), the mNSS score is 4.54 ± 1.81^###, **** and the Garcia score was 12.45 ± 1.89^####, ****. Moreover, the “content of IL-6 in cerebral cortex tissue” value in the series on IL-6 is “significantly reduced”. Also, the “Hanging time, Before administration” value in series [2] (baseline 2 weeks after 6-OHDA) amounted to 45.5 ± 14.6 s. Also, in series [2], the “Hanging time, 1 week of administration” value was found to be 51.8 ± 14.1 s; the “Hanging time, 2 weeks of administration” value is reported as 56.8 ± 5.2 s; the “Hanging time, 3 weeks of administration” value is 58.8 ± 2.8 s; the “Hanging time, 4 weeks of administration” value was found to be 57.6 ± 4.6 s.
